Results taken from PubChem BioAssay AID248 (DTP/NCI, 2004).
Toxic doses and inconclusive results are not listed. Rule as the data show it: active = T/C of 150% or more; inactive = T/C below 125%.

System: L1210 leukemia ip in BDF1 mice, survival T/C
Assay: NCI In Vivo Anticancer Drug Screen. Data for tumor model L1210 Leukemia (intraperitoneal) in B6D2F1 (BDF1) mice
Conditions: endpoint: mean survival time, higher = longer survival
Summary of the method: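 Transplantable tumor model; survival measured in treated vs vehicle control mice. Value = treated/control.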

[1] = dose: 100.0 mg/kg/injection, schedule: Q01DX009 (ip), vehicle: Klucel (hydroxypropylcellulose) (HPC)
[2] = dose: 100.0 mg/kg/injection, schedule: Q04DX003 (ip), vehicle: other
[3] = dose: 200.0 mg/kg/injection, schedule: Q01DX009 (ip), vehicle: Klucel (hydroxypropylcellulose) (HPC)
[4] = dose: 200.0 mg/kg/injection, schedule: Q04DX003 (ip), vehicle: other
[5] = dose: 400.0 mg/kg/injection, schedule: Q01DX009 (ip), vehicle: Klucel (hydroxypropylcellulose) (HPC)
[6] = dose: 400.0 mg/kg/injection, schedule: Q04DX003 (ip), vehicle: other
[7] = dose: 25.0 mg/kg/injection, schedule: Q01DX009 (ip), vehicle: Klucel (hydroxypropylcellulose) (HPC)
[8] = dose: 50.0 mg/kg/injection, schedule: Q01DX009 (ip), vehicle: Klucel (hydroxypropylcellulose) (HPC)
[9] = dose: 100.0 mg/kg/injection, schedule: Q01DX001 (ip), vehicle: carboxymethylcellulose (CMC)
[10] = dose: 200.0 mg/kg/injection, schedule: Q01DX001 (ip), vehicle: carboxymethylcellulose (CMC)
[11] = dose: 400.0 mg/kg/injection, schedule: Q01DX001 (ip), vehicle: carboxymethylcellulose (CMC)
[12] = dose: 100.0 mg/kg/injection, schedule: Q04DX003 (ip), vehicle: Klucel (hydroxypropylcellulose) (HPC)
[13] = dose: 200.0 mg/kg/injection, schedule: Q04DX003 (ip), vehicle: Klucel (hydroxypropylcellulose) (HPC)
[14] = dose: 400.0 mg/kg/injection, schedule: Q04DX003 (ip), vehicle: Klucel (hydroxypropylcellulose) (HPC)

Measured: T/C

CC(C)(C)C(N)=O
inactive: [1] 92 % of control | [2] 94 % of control | [3] 90 % of control | [4] 98 % of control | [5] 95 % of control | [6] 98 % of control

NC(=S)N/N=C/c1ccc(Cl)cc1
inactive: [7] 103 % of control | [8] 101 % of control

CC1=CC2C(C3C=CC2(C)C(=O)C3(C)Cc2ccccc2)C(C)(Cc2ccccc2)C1=O (stereo not given)
inactive: [8] 94 % of control | dose: 75.0 mg/kg/injection, schedule: Q01DX001 (ip), vehicle: Klucel (hydroxypropylcellulose) (HPC) 100 % of control | [1] 96 % of control | dose: 150.0 mg/kg/injection, schedule: Q01DX001 (ip), vehicle: Klucel (hydroxypropylcellulose) (HPC) 99 % of control | [3] 93 % of control | dose: 300.0 mg/kg/injection, schedule: Q01DX001 (ip), vehicle: Klucel (hydroxypropylcellulose) (HPC) 96 % of control

c1ccc2c(c1)Cc1cc(CN3CCOCC3)ccc1-2
inactive: dose: 50.0 mg/kg/injection, schedule: Q01DX001 (ip), vehicle: carboxymethylcellulose (CMC) 92 % of control | [9] 100 % of control | [10] 94 % of control | [11] 94 % of control

CC1=N/C(=N\c2nc3ccccc3[nH]2)NC(=O)CC1
inactive: dose: 75.0 mg/kg/injection, schedule: Q01DX001 (ip), vehicle: saline 101 % of control | dose: 150.0 mg/kg/injection, schedule: Q01DX001 (ip), vehicle: saline 93 % of control

Nc1nc(N)c2nc(CSc3ccccc3)cnc2n1
inactive: dose: 20.0 mg/kg/injection, schedule: Q01DX009 (ip), vehicle: saline with Tween-80 97 % of control | dose: 40.0 mg/kg/injection, schedule: Q01DX009 (ip), vehicle: saline with Tween-80 97 % of control | dose: 80.0 mg/kg/injection, schedule: Q01DX009 (ip), vehicle: saline with Tween-80 94 % of control

N#Cc1cc(Cl)c(OCc2ccccc2)c(Cl)c1
inactive: dose: 50.0 mg/kg/injection, schedule: Q01DX001 (ip), vehicle: saline with Tween-80 102 % of control | dose: 100.0 mg/kg/injection, schedule: Q01DX001 (ip), vehicle: saline with Tween-80 104 % of control | dose: 200.0 mg/kg/injection, schedule: Q01DX001 (ip), vehicle: saline with Tween-80 95 % of control

O=C(Nc1cc(S(=O)(=O)F)ccc1Cl)c1ccc2ccccc2c1O
inactive: [1] 97 % of control | [12] 91 % of control | [3] 101 % of control | [13] 98 % of control | [5] 95 % of control | [14] 104 % of control

CC(C)CCCC(C)C1CCC2C3CC=C4CC(OC(=O)CCl)CCC4(C)C3CCC12C (stereo not given)
inactive: dose: 50.0 mg/kg/injection, schedule: Q01DX001 (ip), vehicle: saline 101 % of control | dose: 100.0 mg/kg/injection, schedule: Q01DX001 (ip), vehicle: saline 95 % of control | dose: 200.0 mg/kg/injection, schedule: Q01DX001 (ip), vehicle: saline 95 % of control | dose: 400.0 mg/kg/injection, schedule: Q01DX001 (ip), vehicle: saline 101 % of control

CC1=CC(=N\S(=O)(=O)c2ccccc2)/C2(Cl)CC(C)=C(C)CC2/C1=N/S(=O)(=O)c1ccccc1 (stereo not given)
inactive: dose: 50.0 mg/kg/injection, schedule: Q01DX001 (ip), vehicle: Klucel (hydroxypropylcellulose) (HPC) 98 % of control | dose: 100.0 mg/kg/injection, schedule: Q01DX001 (ip), vehicle: Klucel (hydroxypropylcellulose) (HPC) 95 % of control | dose: 200.0 mg/kg/injection, schedule: Q01DX001 (ip), vehicle: Klucel (hydroxypropylcellulose) (HPC) 103 % of control

COc1cc(OCc2ccccc2)c(CC(=O)O)c([N+](=O)[O-])c1
inactive: dose: 100.0 mg/kg/injection, schedule: Q01DX001 (ip), vehicle: other 104 % of control | dose: 100.0 mg/kg/injection, schedule: Q01DX009 (ip), vehicle: other 93 % of control | [2] 100 % of control | dose: 200.0 mg/kg/injection, schedule: Q01DX001 (ip), vehicle: other 100 % of control | dose: 200.0 mg/kg/injection, schedule: Q01DX009 (ip), vehicle: other 106 % of control | [4] 94 % of control | dose: 400.0 mg/kg/injection, schedule: Q01DX001 (ip), vehicle: other 94 % of control | dose: 400.0 mg/kg/injection, schedule: Q01DX009 (ip), vehicle: other 103 % of control | [6] 94 % of control

CC(C)NNC(=O)c1ccc(Cl)cc1
inactive: [7] 92 % of control | dose: 25.0 mg/kg/injection, schedule: Q04DX003 (ip), vehicle: Klucel (hydroxypropylcellulose) (HPC) 96 % of control | [8] 93 % of control | dose: 50.0 mg/kg/injection, schedule: Q04DX003 (ip), vehicle: Klucel (hydroxypropylcellulose) (HPC) 89 % of control | [1] 103 % of control | dose: 100.0 mg/kg/injection, schedule: Q01DX009 (ip), vehicle: saline with Tween-80 88 % of control | [12] 94 % of control | dose: 200.0 mg/kg/injection, schedule: Q01DX009 (ip), vehicle: saline with Tween-80 98 % of control | [13] 86 % of control | dose: 400.0 mg/kg/injection, schedule: Q01DX009 (ip), vehicle: saline with Tween-80 90 % of control | [14] 102 % of control

CCCCCCCCCC(=O)c1ccccc1
inactive: dose: 100.0 mg/kg/injection, schedule: Q04DX002 (ip), vehicle: Klucel (hydroxypropylcellulose) (HPC) 96 % of control | dose: 200.0 mg/kg/injection, schedule: Q04DX002 (ip), vehicle: Klucel (hydroxypropylcellulose) (HPC) 103 % of control | dose: 400.0 mg/kg/injection, schedule: Q04DX002 (ip), vehicle: Klucel (hydroxypropylcellulose) (HPC) 100 % of control

O=c1[nH]c2cc(Cl)ccc2c2ccccc12
inactive: [9] 99 % of control | [10] 97 % of control | [11] 95 % of control
